“And” between values parts separate entries of the source, which are not always exact repeats. Equal values may be shown once. Read-outs that look alike come from different tables or passages of the source. Marks after values point to notes of the source that are not given here.
Key:
[1] = Pooled analysis of non-compartmental plasma PK of single-dose selumetinib in healthy subjects, by ethnicity; assay type: in vivo, human; conditions: for DN AUC / DN AUC(0–12) / DN Cmax: geometric mean (%CV)
Procedure: All the studies included in the pooled analysis were conducted in accordance with the ethical principles outlined in the Declaration of Helsinki and the International Council on Harmonization Good Clinical Practice. Written informed consent was obtained from all subjects prior to any study-related procedures.
The pooled analysis database was constructed using data collected in 10 studies (Online Resource 1). PK data were taken from Study 86 (Asian study) and Studies 66, 69, 71, 78, 80, 81, 82, 83 and 85 (Western studies), while pharmacogenetic data were obtained from Study 86 (Asian study) and Studies 66 and 83 (Western studies). Informed consent for genetic assessment was as follows: Study 66, 21 of 27 volunteers gave consent (one of these volunteers discontinued treatments); Study 83, all 26 volunteers gave consent; Study 86, 45 of 72 volunteers gave consent.
Further inclusion criteria for the database included fasted subjects dosed with the selumetinib capsule formulation used for Phase III. This meant exclusion of data from other oral formulations used in study 78 and intravenous formulation used in study 80. Data were included solely from study arms where there was an absence of other treatments (e.g. rifampicin, fluconazole) and from subjects with normal renal and hepatic function.
A merged dataset containing subject identifier, non-compartmental PK parameters and demographics was constructed.
The PK parameters AUC, AUC0–12 and Cmax were normalized (abbreviated as DN) for each subject, by dividing the specific PK parameter by the nominal dose (in mg units) and for dose per kg of body weight (abbreviated as DWN) using the following formula: PK parameter value / (nominal dose in mg units / subjects baseline body weight in kg units).
The majority of subjects in the Western studies were of White ethnicity, thus this formed the reference category for comparison. Statistical comparisons of selumetinib PK were undertaken between the following ethnic groups: Western vs All Asian; White vs Black; White vs All Asian; White vs Japanese; White vs non-Japanese Asian; White vs Indian. The comparisons were performed by fitting multivariate models to the PK parameters of interest (e.g. dose-normalized AUC and Cmax), with a stepwise backward selection of the covariates including ethnicity, age, sex, and weight.
Bioanalysis was performed by Covance, USA. […] After addition of deuterated internal standard, samples were extracted by protein precipitation by the addition of 4 volumes of methanol:acetonitrile. After centrifugation, the supernatants were […] to dryness under nitrogen at 50°C and reconstituted in methanol;water before analysis. Extraction recovery was approximately 93%. […] The typical liquid chromatography system was a Prominence SIL-20AC (Shimadzu, Tokyo, Japan). A Phenomenex Luna C18 column was used and maintained at 30°C. A gradient mobile phase system was used with 0.1% formic acid in water (A) or acetonitrile (B) with a flow rate of 0.500 mL/min and the gradient running from 25% B to 65% B over 2 minutes then increasing to 95% B over 0.1 minutes and held for 0.5 minutes before re-equilibration. The mass spectrometer used was an API 5000 or 5500 triple quadruple mass spectrometer (AB Sciex, Foster City, CA, USA). This was run in positive electrospray, multiple reaction monitoring, with an ionspray voltage of 5500 V and TurboIonSpray temperature of 600°C with transitions of 459.0/397.2 monitored.

[2] = tested on: UDP glucuronosyltransferase family 1 member A1 (UGT1A1); set-up: method as in earlier work; conditions: ref 1 Report nos. Be000021–21 and D6244 KMN036, data on file, AstraZeneca; cited from earlier work
[3] = human, in vivo; cited from earlier work
[4] = tested on: Breast Cancer Resistance Protein (BCRP); set-up: method as in earlier work; conditions: ref 1 Report nos. Be000021–21 and D6244 KMN036, data on file, AstraZeneca; cited from earlier work
[5] = Safety and tolerability in Study 86 (Asian study); assay type: in vivo, human
Source text: Safety and tolerability findings obtained from Study 86 were summarized and compared descriptively to the safety and tolerability findings from the studies in Western subjects. Additional safety and tolerability data for the Western studies are reported in detail elsewhere and include references.

[6] = All Asian (N = 72), healthy subjects, single dose, doses pooled
[7] = All Asian group compared with Western group
[8] = Black (N = 87), healthy subjects, single dose, doses pooled
[9] = Indian (N = 9), healthy subjects, single dose
[10] = Japanese (N = 27), healthy subjects, single dose, doses pooled
[11] = Western (N = 236), healthy subjects, single dose, doses pooled
[12] = White (N = 149), healthy subjects, single dose, doses pooled
[13] = non-Japanese Asian (N = 36), healthy subjects, single dose, doses pooled
[14] = non-Japanese Asian compared to White
[15] = Study 86, Asian healthy subjects, 25, 35 and 50 mg

SMILES: Cn1cnc2c(F)c(Nc3ccc(Br)cc3Cl)c(C(=O)NOCCO)cc21 [selumetinib, Selumetinib]
- DN AUC [1, 6]: 79.8 ng.h/mL/mg and 79.8 (23.6) ng.h/mL/mg
- DN AUC(0–12) [1, 6]: 61.7 ng.h/mL/mg and 61.7 (24.6) ng.h/mL/mg
- DN Cmax [1, 6]: 26.3 (30.9) ng/mL/mg
- tmax ([1]; All Asian (N = 72), healthy subjects, single dose, median (min, max)): 1.0 (1, 4) h
- percentage by which dose-normalized AUC is higher [1, 7]: 35%
- percentage by which dose-normalized Cmax is higher [1, 7]: 39%
- dose-normalized selumetinib exposure higher ([1]; Asian subjects compared with Western subjects, single dose 25 to 75 mg): 35–39%
- DN AUC [1, 8]: 53.4 ng.h/mL/mg and 53.4 (26.4) ng.h/mL/mg
- DN AUC(0–12) [1, 8]: 43.3 ng.h/mL/mg and 43.3 (26.7) ng.h/mL/mg
- DN Cmax [1, 8]: 16.9 (39.6) ng/mL/mg
- tmax ([1]; Black (N = 87), healthy subjects, single dose, median (min, max)): 1.0 (1, 4) h
- DN AUC [1, 9]: 69.5 ng.h/mL/mg and 69.5 (16.7) ng.h/mL/mg
- DN AUC(0–12) [1, 9]: 53.5 ng.h/mL/mg and 53.5 (19.6) ng.h/mL/mg
- DN Cmax [1, 9]: 28.1 (16.0) ng/mL/mg
- tmax ([1]; Indian (N = 9), healthy subjects, single dose, median (min, max)): 1.0 (1, 2) h
- percentage increase in geomean dose-normalized AUC ([1]; Indian compared to White): 22%
- percentage increase in geomean dose-normalized Cmax ([1]; Indian compared to White): 41%
- DN AUC [1, 10]: 84.8 ng.h/mL/mg and 84.8 (21.0) ng.h/mL/mg
- DN AUC(0–12) [1, 10]: 65.7 ng.h/mL/mg and 65.7 (24.1) ng.h/mL/mg
- DN Cmax [1, 10]: 28.7 (31.0) ng/mL/mg
- tmax ([1]; Japanese (N = 27), healthy subjects, single dose, median (min, max)): 1.0 (1, 3) h
- percentage increase in geomean dose-normalized AUC ([1]; Japanese compared to White): 51%
- percentage increase in geomean dose-normalized Cmax ([1]; Japanese compared to White): 45%
- DN AUC ([1]; Western (N = 235), healthy subjects, single dose, doses pooled): 52.4 ng.h/mL/mg and 52.4 (24.9)^‡ ng.h/mL/mg
- t1/2 ([1]; Western (N = 235), healthy subjects, single dose, arithmetic mean (SD)): 9.1 (2.91)^‡ h
- DN AUC(0–12) [1, 11]: 42.9 ng.h/mL/mg and 42.9 (25.1) ng.h/mL/mg
- DN Cmax [1, 11]: 17.4 (35.6) ng/mL/mg
- tmax ([1]; Western (N = 236), healthy subjects, single dose, median (min, max)): 1.0 (1, 4) h
- DN AUC ([1]; White (N = 148), healthy subjects, single dose, 25-75 mg doses pooled): 51.9 ng.h/mL/mg and 51.9 (23.9)^† ng.h/mL/mg
- DN AUC(0–12) [1, 12]: 42.7 ng.h/mL/mg and 42.7 (24.2) ng.h/mL/mg
- DN Cmax [1, 12]: 17.7 (33.2) ng/mL/mg
- tmax ([1]; White (N = 149), healthy subjects, single dose, median (min, max)): 1.0 (1, 4) h
- half-life ([1]; human, plasma, oral, 25 mg, Indian (N = 9), healthy subjects, single dose, arithmetic mean (SD)): 9.5 h
- half-life ([1]; human, plasma, oral, All Asian (N = 72), healthy subjects, single dose, arithmetic mean (SD)): 10.4 h
- half-life ([1]; human, plasma, oral, Black (N = 87), healthy subjects, single dose, arithmetic mean (SD)): 8.7 h
- half-life ([1]; human, plasma, oral, Japanese (N = 27), healthy subjects, single dose, arithmetic mean (SD)): 11.5 h
- half-life ([1]; human, plasma, oral, White (N = 148), healthy subjects, single dose, arithmetic mean (SD)): 9.3 h
- tmax ([1]; human, plasma, oral, all ethnic groups, read-out: median tmax): 1 to 1.6 h
- half-life ([1]; human, plasma, oral, non-Japanese Asian (N = 36), healthy subjects, single dose, arithmetic mean (SD)): 9.8 h
- tmax ([1]; human, plasma, oral, non-Japanese Asian (N = 36), healthy subjects, single dose, median (min, max), read-out: tmax): 1.6 h
- DN AUC [1, 13]: 78.9 ng.h/mL/mg and 78.9 (25.4) ng.h/mL/mg
- DN AUC(0–12) [1, 13]: 61.1 ng.h/mL/mg and 61.1 (24.6) ng.h/mL/mg
- DN Cmax [1, 13]: 24.3 (32.3) ng/mL/mg
- differences in the geomeans for dose-normalized AUC and dose-normalized Cmax ([1]; non-Japanese Asian and Indian against Japanese): 2 to 18%
- percentage increase in geomean dose-normalized AUC [1, 14]: 37%
- percentage increase in geomean dose-normalized Cmax [1, 14]: 20%
- substrate of enzyme [2]: substrate
- serious AEs [3]: no serious AEs
- substrate of transporter protein [4]: substrate
- number of AEs reported ([5]; Study 86, Asian healthy subjects): 21
- AE leading to discontinuation of selumetinib [5, 15]: no AE led to the discontinuation
- serious adverse event [5, 15]: no subject experienced a serious adverse event
- safety or tolerability concerns ([5]; Study 86, Asian healthy subjects, any dose level (25, 35 and 50 mg)): no safety or tolerability concerns
- number of AEs deemed related to selumetinib by the Investigator ([5]; Study 86, of the 21 AEs reported): 14
